Test results as given in patent publication US9801961B2, “2-phenylimidazo[1,2-a]pyrimidines as imaging agents” (Hoffmann-La Roche Inc., priority 2013, dated 2017).

Tested on: native tau aggregates
Experiment: TAU radioligand in vitro displacement assay ([3H]T808 autoradiography on human AD brain sections)
Assay type: binding
Settings: radioligand [3H]T808 10 nM, 50 mM Tris pH 7.4, room temperature, 30 min; for % displacement of [3H]T808 (10 nM) at 10 nM: compound 10 nM; for % displacement of [3H]T808 (10 nM) at 1 uM: compound 1 uM
Protocol: TAU Radioligand-In-Vitro Displacement Assay
This in vitro binding assay assesses the affinity of compounds for native tau aggregates. The compounds are co-incubated with the well-established tau specific radioligand [^3H]T808 and the compound's displacement potency of [^3H]T808 binding is determined by in vitro autoradiography using human Alzheimer's disease (AD) brain sections (FIG. 1).
AD human brains are purchased from Banner Sun Health Research Institute (Sun City, Ariz., USA). Pathological diagnosis of AD is made according to standard NIA-Reagan Institute criteria based on neuropathological data. The radioligand [^3H]T808 was synthesized in-house ([^3H]-2-[4-(2-Fluoro-ethyl)-piperidin-1-yl]-benzo[4,5]imidazo[1,2-a]pyrimidine, radiochemical purity 99.0%). As a reference cold T808 is used (2-[4-(2-Fluoro-ethyl)-piperidin-1-yl]-benzo[4,5]imidazo[1,2-a]pyrimidine). For the autoradiography FujiFilm Imaging Plates (BAS-IP TR 2025) are exposed to the sections and read with a FujiFilm IP reader (BAS-5000).
Ten μm thick human AD brain sections are generated with a cryostat (Leica CM3050) at −17° C. chamber temperature and −15° C. object temperature. Sections are transferred to Histobond+microscope slides (Marienfeld Laboratory Glasware). After drying for 3 hours at room temperature the sections are stored at −20° C. The sections are incubated with the radioligand (10 nM) and the respective cold compound (at various concentrations) in 50 mM Tris buffer, pH 7.4 at room temperature for 30 min. After washing 3×10 min at 4° C. in 50 mM Tris buffer, pH 7.4 and 3 quick dips in H2O dist. at 4° C. the sections are dried at 4° C. for 3 h. The sections are placed in a FujiFilm Cassette (BAS 2025), exposed with an Imaging Plate for five days and afterwards scanned with a resolution of […].
The signal intensity (Dens—PSL/mm2) in the region of interest (ROI) of the autoradiogram is quantified with the software MCID analysis (version 7.0, Imaging Research Inc.). The specific binding (SB) of [^3H]T808 binding in absence or in presence of a compound is calculated by subtracting the non-specific binding signal in the white matter, thus yielding SB[3H]T808 only and SBcompund. The % displacement by the various compounds is calculated as following: % displacement=100−(SBcompund/SB[3H]T808 only)*100.
In each experiment cold T808 is used as a positive internal control. Co-incubation of equimolar amounts of hot and cold T808 is expected to reduce specific binding by approximately 50%.

With `CNc1ccn2cc(-c3ccccc3)nc2n1` [Example 1, N-Methyl-2-phenylimidazo[1,2-a]pyrimidin-7-amine] the “% displacement of [3H]T808 (10 nM) at 10 nM” value (“% displacement … at 10 nM” for short) was 37%.
With `FC1CCN(c2ccn3cc(-c4ccccc4)nc3n2)CC1` [Example 2, 7-(4-Fluoropiperidin-1-yl)-2-phenylimidazo[1,2-a]pyrimidine] the “% displacement … at 10 nM” value was 19% and the “% displacement of [3H]T808 (10 nM) at 1 uM” value (shortened to “% displacement … at 1 uM”) was 72%.
For `COc1ccc(-c2cn3ccc(N4CCC(F)CC4)nc3n2)cc1` [Example 3, 7-(4-Fluoropiperidin-1-yl)-2-(4-methoxyphenyl)imidazo[1,2-a]pyrimidine], the “% displacement … at 10 nM” value was 31% and the “% displacement … at 1 uM” value was 87%.
For `FC1CCN(c2ccn3cc(-c4ccc(Cl)cc4)nc3n2)CC1` [Example 4, 2-(4-Chlorophenyl)-7-(4-fluoropiperidin-1-yl)imidazo[1,2-a]pyrimidine], the “% displacement … at 1 uM” value was 58%.
For `COc1cccc(-c2cn3ccc(N4CCC(F)CC4)nc3n2)c1` [Example 5, 7-(4-Fluoropiperidin-1-yl)-2-(3-methoxyphenyl)imidazo[1,2-a]pyrimidine], the “% displacement … at 10 nM” value was 33% and the “% displacement … at 1 uM” value was 74%.
In the case of `Fc1ccc(-c2cn3ccc(N4CCC(F)CC4)nc3n2)cc1` [Example 6, 2-(4-Fluorophenyl)-7-(4-fluoropiperidin-1-yl)imidazo[1,2-a]pyrimidine], the “% displacement … at 1 uM” value is reported as 65%.
In the case of `FC1CCN(c2ccn3cc(-c4ccc5c(c4)OCO5)nc3n2)CC1` [Example 7, 2-(1,3-Benzodioxol-5-yl)-7-(4-fluoropiperidin-1-yl)imidazo[1,2-a]pyrimidine], the “% displacement … at 10 nM” value is reported as 21% and the “% displacement … at 1 uM” value is reported as 75%.
For `FC1CCN(c2ccn3cc(-c4ccc5c(c4)OCCO5)nc3n2)CC1` [Example 8, 2-(2,3-Dihydro-1,4-benzodioxin-6-yl)-7-(4-fluoropiperidin-1-yl)imidazo[1,2-a]pyrimidine], the “% displacement … at 1 uM” value was 72%.
For `FC1CCN(c2ccn3cc(-c4ccc(N5CCOCC5)cc4)nc3n2)CC1` [Example 9, 4-[4-[7-(4-Fluoropiperidin-1-yl)imidazo[1,2-a]pyrimidin-2-yl]phenyl]morpholine], the “% displacement … at 1 uM” value was 75%.
In the case of `Cc1cccc(-c2cn3ccc(N4CCC(F)CC4)nc3n2)c1` [Example 10, 7-(4-Fluoropiperidin-1-yl)-2-(3-methylphenyl)imidazo[1,2-a]pyrimidine], the “% displacement … at 1 uM” value is reported as 79%.
In the case of `Cc1ccc(-c2cn3ccc(N4CCC(F)CC4)nc3n2)cc1` [Example 11, 7-(4-Fluoropiperidin-1-yl)-2-(4-methylphenyl)imidazo[1,2-a]pyrimidine], the “% displacement … at 10 nM” value is reported as 4% and the “% displacement … at 1 uM” value is reported as 81%.
`Fc1ccccc1-c1cn2ccc(N3CCC(F)CC3)nc2n1` [Example 12, 2-(2-Fluorophenyl)-7-(4-fluoropiperidin-1-yl)imidazo[1,2-a]pyrimidine] was tested, and the “% displacement … at 1 uM” value was 50%.
`Oc1cccc(-c2cn3ccc(N4CCC(F)CC4)nc3n2)c1` [Example 13, 3-[7-(4-Fluoropiperidin-1-yl)imidazo[1,2-a]pyrimidin-2-yl]phenol] was tested, and the “% displacement … at 1 uM” value was 67%.
With `FC1CCN(c2ccn3cc(-c4ccc(N5CCCC5)cc4)nc3n2)CC1` [Example 14, 7-(4-Fluoropiperidin-1-yl)-2-(4-pyrrolidin-1-ylphenyl)imidazo[1,2-a]pyrimidine] the “% displacement … at 10 nM” value was 18% and the “% displacement … at 1 uM” value was 75%.
`FC1CCN(c2ccn3cc(-c4cccc(OC(F)(F)F)c4)nc3n2)CC1` [Example 15, 7-(4-Fluoropiperidin-1-yl)-2-[3-(trifluoromethoxy)phenyl]imidazo[1,2-a]pyrimidine] was tested, and the “% displacement … at 10 nM” value was 14%.
